What was measured:
RAW264.7 macrophages = test: Foam cell formation (ox-LDL, BODIPY 493/503 staining) in RAW264.7 macrophages; format: cell-based
Procedure: RAW264.7 cells were obtained from the National Infrastructure of Cell Line Resource of Beijing, China, and the cells used for the experiment were cultured for at least three passages. Dulbecco’s Modified Eagle’s Medium (DMEM)-F12 medium containing 10% fetal bovine serum (FBS) was employed to culture the RAW264.7 cells. RAW264.7 cells were incubated at 37°C with 5% carbon dioxide. The RAW264.7 cells were plated at 2.5×10^5 cells/well (6-well plates), 6.0×10^4 cells/well (24-well plates), and 10^4 cells/well (96-well plates). The RAW264.7 cells were plated and grown overnight; then the medium was removed and fresh DMEM-F12 contained with 0.1% DMSO (control; n=3 ) or TPHP at the concentrations of 1–20,000 nM ( n=3 per group) was added. […] Then the cells were used for the quantitative reverse transcription (qRT)-PCR, cellular cholesterol efflux assay, and foam cell formation experiment.
RAW264.7 cells or mouse peritoneal macrophages were plated in 24-well plates at 6.0×10^4 cells/well and grown overnight. Then the medium was removed and fresh DMEM-F12 containing 10% FBS, 20μg/mL oxidized low-density lipoprotein (ox-LDL), and 0.1% DMSO (control; n=3 ) or TPHP at the concentration of 1–20,000 nM ( n=3 per group) was added. The cells were washed with PBS, followed by fixing in 4% paraformaldehyde for 30 min and staining with boron-dipyrromethene (BODIPY) 493/503 ( 20μg/mL ) and 4′,6-diamidino-2-phenylindole (DAPI; 100 ng/mL ) for 10 min. Foam cell formation was analyzed by high-content microscopy using ImageXpress® Micro XL (Molecular Devices). From each well, 25 image fields were scanned, and MetaXpress® (Molecular Devices) was used to quantify compartmentalized changes in the fluorescence of each cell.

ABCG1 = test: qRT-PCR of ABCG1 in peritoneal macrophages isolated from exposed C57BL/6 mice; format: in vivo, mouse; conditions: 200 mg/kg BW oral gavage for 7 d, control set to 1, p<0.01
Procedure: Total RNA was isolated from RAW264.7 cells and mouse peritoneal macrophages using TRIzol reagent according to the manufacturer’s instructions. Then a Nanovue Plus™ spectrophotometer (GE Healthcare Life Science) was used to analyze the concentration, quality, and purity of the RNA. Total RNA ( 1μg ) was mixed with oligo deoxythymine (dT) ( 1μL ) at 70°C for 5 min and then combined with a mixture containing Moloney murine leukemia virus (MMLV) reverse transcriptase ( 1μL ), deoxy-ribonucleoside triphosphate (dNTP) ( 1.25μL ), Recombinant RNasin® Ribonuclease Inhibitor (Promega) ( 0.65μL ), and MMLV buffer ( 5μL ) at 42°C for 60 min. The SYBR® Green PCR Kit (TOYOBO) was used for RT-PCR analysis. Real-time fluorescence detection was performed using the StepOnePlus™ sequence detection system (Applied Biosystems). […]
All experiments related to animals were approved by the institutional animal care and use committee of Peking University and followed the guidelines for animal experiments of the university as well as for experimental animals in China. […] Body weight (BW) was measured every week during the dosing period. […] Considering that this study assessed the effects of short-term exposure to TPHP, whereas humans are exposed to TPHP over a lifelong period, the present study used exposure doses that were higher than that of human exposure from house dust. […]

O=P(Oc1ccccc1)(Oc1ccccc1)Oc1ccccc1 [TPHP, triphenyl phosphate]
Intensity of foam cell staining relative to control (RAW264.7 macrophages; 100 nM, p<0.01): 1.64±0.02 fold
Intensity of foam cell staining relative to control (RAW264.7 macrophages; 1,000 nM, p<0.01): 1.67±0.14 fold
Intensity of foam cell staining relative to control (RAW264.7 macrophages; 5,000 nM, p<0.05): 1.78±0.31 fold
Intensity of foam cell staining relative to control (RAW264.7 macrophages; 10,000 nM, p<0.05): 2.08±0.45 fold
Intensity of foam cell staining relative to control (RAW264.7 macrophages; 20,000 nM, p<0.05): 2.09±0.52 fold
ABCG1 gene expression in peritoneal macrophages relative to control (ABCG1): 0.30±0.08 fold

From publication PMC6927504, “Screening of House Dust from Chinese Homes for Chemicals with Liver X Receptors Binding Activities and Characterization of Atherosclerotic Activity Using an in Vitro Macrophage Cell Line and ApoE^−/− Mice” (Environmental Health Perspectives, 2019)
